Experimental data as given in US20070025974A1, “Amylases producing an altered immunogenic response and methods of making and using the same” (priority 2003, published 2007).

Tested on: human CD4+ T-cells
Assay: I-MUNE assay: T-cell proliferation (tritiated thymidine) with dendritic cells and CD4+ T-cells
Type: cell-based
Conditions: approximately 5 Lf/mL

Substance: tetanus toxoid
- positive control proliferative response: robust positive control responses
